Experimental findings from US7645882B2, “Inhibitor of protein modification products formation” (priority 2003, dated 2010) are described below.

The assay relates to pentosidine. Put plainly: Pentosidine production inhibiting effect with BSA and arabinose. The assay is classed as biochemical. The note with it: BSA and arabinose instead of plasma. The protocol: Fresh heparinized plasma samples were obtained after informed consent from hemodialysis patients prior to the dialysis session, and filtrated and sterilized. To the plasma (450 μL), there was added the solution of TM-2002 in dimethylsurphoxide (50 μL) (final concentration: 0.8, 2.0, 5.0 mM) incubated at 37° C. for one week. Then, the amount of pentosidine was measured.
Measurement of the amount of pentosidine was made as follows: to each incubated sample (50 μL) was added an equal volume of 10% trichloroacetic acid, followed by centrifugation at 5000 g for 5 minutes; after removal of the supernatant, the pellet was washed by 5% trichloroacetic acid (300 μL); the pellet was dried under reduced pressure and then subjected to hydrolysis in 6N HCl solution (100 μL) at 110° C. under nitrogen atmosphere for 16 hours; to the hydrolysate, 5N NaOH (100 μL) and 0.5 M phosphate buffer (pH 7.4) (200 μL) were added, followed by filtration through a porefilter with a pore size of 0.5 μm and dilution with PBS. The concentration of free pentosidine was determined by reversed-phase HPLC using a fluorescence detector (Miyata, T. et al.: Proc. Natl. Acad. Sci. USA, Vol. 93, p. 2353-2358, 1996). The effluent was monitored at 335/385 nm of excitation/emission wavelength. Synthetic pentosidine was used as the standard. The detection limit of pentosidine was 0.1 pmol/mg protein.
The plasma from patients was substituted to BSA and arabinose, and the pentosidine production inhibiting effect of another compounds (I) or (II) was measured in the same manner as [Test Examination 1]. Therein, “-” means that the examination was not carried out.

For the compound `CC1=NN(c2ccccc2)C(=O)C1CCC(=O)O` (centres unmarked) [compound 7, 3-(3-methyl-5-oxo-1-penyl-4,5-dihydro-1H-pyrazol-4-yl)-propionic acid], the “Pentosidine production rate in 5 mM of medicament (%)” value (from here on “Pentosidine production rate … (%)”) is given as 64.64%.
As for `CC1=NN(c2ccccc2)C(=O)C1C(c1ccccc1)c1c(C)nn(-c2ccccc2)c1O` (centres unmarked) [compound 9, 4-[(5-hydroxy-3-methyl-1-phenyl-1H-pyrazol-4-yl)-phenyl-methyl]-5-methyl-2-phenyl-2,4-dihydro-pyrazol-3-one], the “Pentosidine production rate … (%)” value stood at 7.52%.
The figure for `CC(=O)NC1C(=O)N(c2ccccc2)N=C1C` (centres unmarked) [compound 12, N-(3-methyl-5-oxo-1-phenyl-4,5-dihydro-1H-pyrazol-4-yl)-acetamide] is 54.21%; for `CC1=NN(c2cccc([N+](=O)[O-])c2)C(=O)C1Sc1nnnn1-c1ccccc1` (centres unmarked) [compound 13, 5-methyl-2-(3-nitro-phenyl)-4-(1-phenyl-1H-tetrazol-5-yl-sulfanil)-2,4-dihydro-pyrazol-3-one] it is 74.66%.
As for `O=C(NC1=NN(c2ccccc2)C(=O)C1Sc1nnnn1-c1ccccc1)c1ccccc1` (centres unmarked) [compound 14, N-[5-oxo-1-phenyl-4-(1-phenyl-1H-tetrazol-5-yl-sulfanil)-4,5-dihydro-1H-pyrazol-3-yl]-benzamide], the “Pentosidine production rate … (%)” value is listed as 61.27%.
Then `CC1=NN(c2ccccc2)C(=O)C1C1C(=O)N(c2ccccc2)N=C1C` (centres unmarked) [compound 17, 5,5′-dimethyl-2,2′-diphenyl-2,4,2′,4′-tetrahydro-[4,4′]-bipyrazol-3,3′-dione], with 60.96%.
Turning to `COc1ccc(-c2csc(SC3C(=O)N(c4ccccc4)N=C3C)n2)cc1` (centres unmarked) [compound 19, 4-[4-(4-methoxy-phenyl)-thiazole-2-yl-sulfanil]-5-methyl-2-phenyl-2,4-dihydro-pyrazol-3-one], the “Pentosidine production rate … (%)” value was determined as 40.19%.
Consider `CCCC1=NN(c2ccccc2)C(=O)C1CC(=O)c1ccccc1` (centres unmarked) [compound 20, 4-(2-oxo-2-phenyl-ethyl)-2-phenyl-5-propyl-2,4-dihydro-pyrazol-3-one], for which the “Pentosidine production rate … (%)” value is listed as 83.12%.
Then `CC1=NN(c2ccccc2)C(=O)C1Sc1nc(-c2ccc(C)cc2)cs1` (centres unmarked) [compound 21, 5-methyl-2-phenyl-4-(4-p-toluyl-thiazole-2-yl-sulfanil)-2,4-dihydro-pyrazol-3-one], with 42.07%.
For `CC1=NN(c2ccc(F)cc2)C(=O)C1C(c1ccccc1O)c1c(C)nn(-c2ccc(F)cc2)c1O` (centres unmarked) [compound 22, 2-(4-fluoro-phenyl)-4-[[1-(4-fluoro-phenyl)-5-hydroxy-3-methyl-1H-pyrazol-4-yl]-(2-hydroxy-phenyl)-methyl]-5-methyl-2,4-dihydro-pyrazol-3-one], the “Pentosidine production rate … (%)” value was found to be 2.9%.
As for `CC1=NN(c2ccccc2)C(=O)C1(O)S(=O)(=O)[O-].[Na+]` (centres unmarked) [compound 25, sodium; 4-hydroxy-3-methyl-5-oxo-1-phenyl-4,5-dihydro-1H-pyrazol-4-sulfonate], the “Pentosidine production rate … (%)” value turned out to be 38.80%.
The figure for `CC1=NN(c2ccccc2)C(=O)C1(N1CCOCC1)N1CCOCC1` [compound 26, 5-methyl-4,4-di-morpholin-4-yl-2-phenyl-2,4-dihydro-pyrazol-3-one] is 50.68%; for `O=C(NC1=NN(c2ccccc2)C(=O)C1(O)S(=O)(=O)[O-])c1ccccc1.[Na+]` (centres unmarked) [compound 27, sodium 3-benzoylamino-4-hydroxy-5-oxo-1-phenyl-4,5-dihydro-1H-pyrazol-4-sulfonate] it is 2.83%.
Regarding `CC1=NN(c2ccccc2)C(=O)C12Sc1ccccc1C2=O` (centres unmarked) [compound 28, 3-methyl-1-phenyl-5-oxo-4-spiro-(3-oxo-2,3-dihydro-benzo[b]thiophen-2-yl)-4,5-dihydro-1H-pyrazol], the “Pentosidine production rate … (%)” value stood at 22.83%.
